Results on 1 molecule are retold here after paper PMC7083565, “In vitro metabolism, reaction phenotyping, enzyme kinetics, CYP inhibition and induction potential of ataluren” (Pharmacology Research & Perspectives, 2020).

By IC50 is commonly meant the concentration needed to halve the response being measured.

The target in one data set is T1, UGT1A7 (Homo sapiens, UniProt Q9HAW7).
T1 construct: purchased BD Biosciences; host or cells: baculovirus-infected insect cells
T1 sequence (Q9HAW7 26-530): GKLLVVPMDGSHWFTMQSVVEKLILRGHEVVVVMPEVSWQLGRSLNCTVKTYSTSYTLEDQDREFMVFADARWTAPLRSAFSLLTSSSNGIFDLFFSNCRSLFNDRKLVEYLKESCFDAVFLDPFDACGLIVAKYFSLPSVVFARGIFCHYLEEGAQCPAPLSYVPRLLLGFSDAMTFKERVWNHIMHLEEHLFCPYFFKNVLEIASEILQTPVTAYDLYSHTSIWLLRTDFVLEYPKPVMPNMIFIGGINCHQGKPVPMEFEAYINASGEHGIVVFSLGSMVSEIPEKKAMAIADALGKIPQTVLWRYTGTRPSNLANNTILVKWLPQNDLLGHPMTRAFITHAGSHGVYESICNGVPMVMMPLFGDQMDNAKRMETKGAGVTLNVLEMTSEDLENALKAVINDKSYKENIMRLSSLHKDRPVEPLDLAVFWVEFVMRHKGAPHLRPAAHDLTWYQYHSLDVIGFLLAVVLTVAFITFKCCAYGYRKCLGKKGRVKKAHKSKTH
Put plainly: Reaction phenotyping with recombinant human UGT enzymes: UGT1A7. The settings on record: rUGT1A7 0.25 mg protein/mL, 10 μmol/L, 60 minutes, n = 2. It counts as in vitro ADME. The protocol: Ataluren at 10 μmol/L, was incubated (n = 2) with recombinant human uridine diphosphate glucuronosyltransferase (rUGT) enzymes: rUGTs 1A1, 1A3, 1A4, 1A6, 1A7, 1A8, 1A9, 1A10, 2B4, 2B7, 2B15, and 2B17 at 0.25 mg protein/mL. Incubations were conducted in duplicate at 37°C. The incubation mixture (0.2 mL, final volume with 1% methanol) consisted of Tris‐HCl buffer (100 mmol/L, pH 7.7 at 37°C), MgCl2 (10 mmol/L), EDTA (1 mmol/L), saccharic acid 1,4‐lactone (0.1 mmol/L), and UDPGA (8 mmol/L). […] Samples were subjected to centrifugation (920 g for 10 minutes at 10°C) and the supernatant fractions were analyzed by LC‐MS/MS to quantify the formation of ataluren‐O‐1β‐acyl glucuronide and loss of ataluren. […] The ataluren acyl glucuronide formation rate after 60 minutes incubation was calculated using the amount of metabolite formed (pmol) divided by the protein amount in the incubation sample (0.05 mg) and the incubation time (60 minutes).
Quantification of ataluren loss and ataluren‐O‐1β‐acyl glucuronide formation was carried out with an LC‐MS/MS system, which consisted of two Shimadzu LC‐10ADvp pumps, a SPD10‐AVP UV/Vis detector, a Shimadzu SILHTA autosampler, a Shimadzu DGU‐14A degasser, and a Sciex API 4000 QTRAP mass spectrometer equipped with a Turbo Ionspray ionization source that operated in positive ionization mode. […]

Another data set deals with CYP1A2. In words: CYP induction in primary human hepatocytes: CYP1A2. The settings on record: Phenacetin O-deethylase, 48 hours, n=3.
The next data set concerns the target T2, CYP2C19 (Homo sapiens, UniProt P33261).
T2 construct: tissue XenoTech LLC, Celsis-In Vitro Technologies, or Tissue Transformation Technologies; host or cells: pooled human liver microsomes
Put plainly: CYP inhibition in pooled human liver microsomes: CYP2C19. Format: in vitro ADME. The settings on record: CYP2C19, HLM, estimated, concentrations up to 400 μmol/L. The protocol: The final concentration of each probe substrate was near the experimentally determined Km value for the indicated enzyme. Ataluren or prototypical CYP inhibitors (positive controls) was incubated (n = 3) with probe substrates and HLM in 100 mmol/L phosphate buffer (pH 7.4) in a total volume of approximately 0.25 mL, and the reactions were initiated by the addition of 1 mmol/L NADPH at 37°C. The reactions were carried out using previously established conditions to ensure linearity with respect to protein concentration and incubation time (Table S1). Incubations were stopped with the addition of ice‐cold acetonitrile. Metabolite formation in incubations with test compound and control inhibitors was assessed with LC‐MS/MS methods for each of the reaction products as described in Table S2. […] After 7 minutes incubation at 37°C, the reaction was stopped by the addition of ice‐cold acetonitrile, followed by membrane plate filtration. The filtrates were used for LC‐MS/MS analysis. […] IC50 values were determined by nonlinear regression with GraphPad Prism 5 using the following four‐parameter sigmoidal‐logistic IC50 equation: Fit=background+range-background/[1+I/IC50^slope]
Where, I is the inhibitor concentration, and background was set to 0 and range to 100, as percent of control values are utilized. K i was determined by nonlinear regression with GraphPad Prism 5 using best fit model.

The structures appear in SMILES notation.

T2 sequence (P33261 whole entry): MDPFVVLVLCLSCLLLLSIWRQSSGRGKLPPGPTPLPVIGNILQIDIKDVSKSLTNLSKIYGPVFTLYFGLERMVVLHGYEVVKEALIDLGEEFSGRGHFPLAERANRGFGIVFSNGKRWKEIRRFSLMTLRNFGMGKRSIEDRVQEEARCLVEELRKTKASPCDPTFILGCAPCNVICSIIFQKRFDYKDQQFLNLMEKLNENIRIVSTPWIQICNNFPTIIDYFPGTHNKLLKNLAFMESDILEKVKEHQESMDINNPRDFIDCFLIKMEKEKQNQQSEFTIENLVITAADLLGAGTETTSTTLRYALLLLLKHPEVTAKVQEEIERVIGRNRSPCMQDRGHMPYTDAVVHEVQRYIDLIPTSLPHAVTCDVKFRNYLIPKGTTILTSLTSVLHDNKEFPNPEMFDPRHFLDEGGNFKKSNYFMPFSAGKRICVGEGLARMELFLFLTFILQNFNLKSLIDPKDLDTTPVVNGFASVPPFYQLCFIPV

In the case of `O=C(O)c1cccc(-c2noc(-c3ccccc3F)n2)c1` [ataluren, Ataluren], the ataluren loss at UGT1A7 was 6.2%. In addition, the figures for the “Positive control %, Mean” value with CYP1A2 (ataluren 4 µM), with CYP1A2 (ataluren 40 µM) and in the data set on CYP1A2 (ataluren 400 µM) were 1.32%, 1.24% and 0.087%, respectively. In addition, the results for the “Vehicle control %, Mean” value with CYP1A2 (ataluren 40 µM) and with CYP1A2 (ataluren 400 µM) were 116% and 100%, respectively. Moreover, the IC50 on CYP2C19 was more than 400 µM.
